What all share (assay): DTP human tumour cell line panel, 48 h
The subject of test [1] is OVCAR-8 ovarian.
Test [2] relates to SNB-19 CNS.
The test system of test [3] is MCF7 breast.
Test [4] relates to KM12 colon.
For test [5], the system named is ACHN renal.
The subject of test [6] is NCI-H522 lung.
Test [7] has as its system SF-268 CNS.
In test [8] the test system is SK-MEL-5 melanoma.
For test [9], the system named is HCT-15 colon.
Test [10] deals with M14 melanoma.

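Protocol summary: plate cells (96-well), add compound at 5 concentrations, incubate 48 h, interpolate endpoints linearly. At the GI50, growth is halved. The concentration for full growth arrest is given as TGI.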

For `CC1(O)/C(=N/O)CC2CC1C2(C)C` (stereo not given), the concentration for total growth inhibition (TGI) in test [1], in [2], in [3], in test [4], in [5] and in test [6] was greater than 100 µM throughout. Moreover, the TGI in test [7], in test [8], in test [9] and in [10] was greater than 100 µM in each case.

Regarding `OC1CC(O)c2c(Cl)sc(Cl)c21` (stereo not given), the TGI – broadly, the concentration giving total growth inhibition – was greater than 100 µM in test [1]; greater than 100 µM in test [3]; greater than 100 µM in test [4]; greater than 100 µM in test [5]; 56.8 µM in [6]; greater than 100 µM in [7]. Also, the TGI in [8], in test [9] and in test [10] was greater than 100 µM each time.

Regarding `CCCCCCCCCCCCCCCCP(=O)(O)OP(=O)(O)OCC1OC(n2cnc3c(N)ncnc32)C(O)C1O` (stereo not given), the total growth inhibition concentration (TGI) worked out at 43.9 µM in [1]; 42 µM in [2]; 45.7 µM in test [3]; 53.8 µM in test [4]; 62.1 µM in test [5]; 41.7 µM in test [6]. The total growth inhibition concentration (TGI) is 95.2 µM in test [7], greater than 100 µM in test [8], 59.4 µM in test [9] and 56.7 µM in test [10].

With `O=c1cc(-c2cccc(OC(F)(F)F)c2)[nH]c2cc3c(cc12)OCO3`, the concentration for total growth inhibition (TGI) in test [1] was greater than 52.2 µM; in test [2] it was greater than 100 µM; in [3], greater than 100 µM; in test [4] it was greater than 100 µM; in test [5] it was greater than 100 µM; in test [6], greater than 100 µM. Further, the concentration for total growth inhibition (TGI) in test [7] is greater than 100 µM; in test [8], 0.336 µM; in [9], 2.66 µM; in [10], greater than 35.7 µM.

For the compound `COC1OC(CO)C(O)C(OC(=O)c2cc(O)c(O)c(O)c2)C1OC(=O)c1cc(O)c(O)c(O)c1` (stereo not given), the total growth inhibition concentration (TGI) in [1], in [2], in [3], in test [4], in test [5] and in [6] was greater than 100 µM throughout. Also, the concentration for total growth inhibition (TGI) in test [7], in test [8], in [9] and in test [10] was greater than 100 µM each time.

Turning to `O=[N+]([O-])c1cccc2nccc(NCC(O)CO)c12` (stereo not given), the TGI in test [1] is 33.2 µM; in test [3], 40 µM; in [4], 28.7 µM; in test [5], 45.2 µM; in [6], 26 µM; in test [7], 67.9 µM. The values for the total growth inhibition concentration (TGI) in [8], in test [9] and in test [10] were 25.8 µM, 22.4 µM and 32.9 µM, respectively.

For `C[Si](C)(C)OC1c2[nH]c3ccccc3c2CN2C(=O)CCC12` (stereo not given), the TGI in [1], in test [2], in test [3], in [4], in [5] and in test [6] was greater than 100 µM in each case. For the same compound, the TGI in test [7], in [8], in [9] and in test [10] was greater than 100 µM each time.

For `Cc1c2c(n(CCc3ccccc3)c1C)NN=C(C#N)S2(=O)=O`, the total growth inhibition concentration (TGI) in [1], in test [2], in [3], in test [4], in test [5] and in test [6] was greater than 100 µM each time. The concentration for total growth inhibition (TGI) in test [7], in [8], in [9] and in test [10] was greater than 100 µM throughout.

`CC(C)CCC[C@@H](C)C1CCC2[C@@H]3CCC4CC(CCC=C(c5cc(Cl)c(OC(=O)c6ccccc6)c(C(=O)O)c5)c5cc(Cl)c(OC(=O)c6ccccc6)c(C(=O)O)c5)CC[C@]4(C)C3CC[C@@]21C` (stereo not given in full): the TGI in [1], in [2], in test [3], in test [4], in [5] and in test [6] was greater than 100 µM in each case. Besides, the total growth inhibition concentration (TGI) in [8] was 78.8 µM; in test [9], greater than 100 µM; in test [10], 29.3 µM.

With `Cc1ccc(S(=O)(=O)NNC(=S)Nc2cccc3ccccc23)cc1`, the TGI was greater than 100 µM in [1]; greater than 100 µM in test [2]; greater than 100 µM in test [3]; 99 µM in test [4]; 79.9 µM in [5]; 46.6 µM in test [6]. Moreover, the concentration for total growth inhibition (TGI) is greater than 100 µM in [7], 33.1 µM in test [8], greater than 100 µM in test [9] and greater than 100 µM in test [10].

For the compound `CCCNC(=S)/N=C\c1c(O)c2ccccc2oc1=O`, the TGI in test [1], in test [2], in [3], in test [4], in test [5] and in test [6] was greater than 100 µM each time. Also, the concentration for total growth inhibition (TGI) in test [7], in test [8], in test [9] and in test [10] was greater than 100 µM each time.

On to `Cc1cc2c(s1)C(=O)c1sccc1C2=O`, for which the TGI was 1.56 µM in [1]; 3.04 µM in test [2]; 2.78 µM in test [3]; 3 µM in test [4]; 2.23 µM in [5]; 1.38 µM in test [6]. The TGI in test [7] is 2.09 µM; in [8] it was 0.301 µM; in [9], 2.52 µM; in test [10] it was 0.356 µM.

For `C=C1C(=O)C23CC1C[C@H](OC(C)=O)C2C1(C)C(OC(C)=O)C[C@H](O)C(C)(C)[C@H]1C(O)[C@@H]3OC(C)=O` (stereo not given in full), the TGI in test [1] is 22 µM; in test [2] it was 44.3 µM; in test [3] it was 19.4 µM; in test [4], greater than 54.5 µM; in test [5] it was 24.3 µM; in [6], 3.34 µM. Besides, the TGI in test [7] amounted to 28.5 µM; in test [8] it was 27.9 µM; in test [9], 25.7 µM; in [10], 18.7 µM.

Take `NC1=NC(OCC2(CO)CCC2)C=C(NCC2(CO)CCC2)N1` (stereo not given): the concentration for total growth inhibition (TGI) in test [1], in [2], in test [3], in test [4], in test [6] and in test [7] was greater than 100 µM throughout. For the same compound, the concentration for total growth inhibition (TGI) in [8], in [9] and in test [10] was greater than 100 µM each time.

As for `Cc1sc2nc3n(c(=O)c2c1C)N=C(c1ccc(Cl)cc1)CS3`, the TGI in [1], in [3], in [4], in test [5], in test [6] and in test [7] was greater than 100 µM throughout. Also, the TGI in test [8] and in test [9] was greater than 100 µM in each case.

For `CCOC(=O)CCC(NC(=O)c1ccc(Nc2nc3cc(C(F)(F)F)ccc3nc2-c2ccccc2)cc1)C(=O)OCC` (stereo not given), the TGI in [1], in [2], in [3], in [4], in test [5] and in [7] was greater than 100 µM in each case. The TGI in test [8], in test [9] and in [10] was greater than 100 µM each time.

Regarding `COC(=O)C1(O)c2ccccc2N=C2C(=O)c3ccccc3N21` (stereo not given), the concentration for total growth inhibition (TGI) in [1], in test [3], in test [4], in [5], in [6] and in test [7] was greater than 100 µM throughout. Further, the TGI in [8] and in test [9] was greater than 100 µM in each case.

Consider `CC1(C)OCC(C2OC(N3O[C@H](CI)C[C@@H]3c3ccccc3)C3OC(C)(C)OC23)O1` (stereo not given in full), for which the TGI in test [2], in [3], in test [4], in [5], in test [6] and in test [7] was greater than 100 µM each time. Further, the concentration for total growth inhibition (TGI) in [8], in test [9] and in test [10] was greater than 100 µM throughout.

With `O=[N+]([O-])C(=C(N1CCOCC1)N1CCOCC1)/C(Cl)=C(\Cl)[N+](=O)[O-]`, the concentration for total growth inhibition (TGI) in test [2] was greater than 65.6 µM; in test [3], 7.73 µM; in test [4], 30.9 µM; in test [5] it was 14.6 µM; in test [6] it was 2.89 µM; in test [7], 22.9 µM. Besides, the concentration for total growth inhibition (TGI) in test [8] was found to be 3.04 µM; in test [9], 8.18 µM; in test [10], 22.1 µM.

As to `NC1CC(=O)c2cc(Br)sc21` (stereo not given), the TGI in test [1], in test [2], in [3], in test [4], in test [5] and in [7] was greater than 100 µM each time. Besides, the total growth inhibition concentration (TGI) in [8], in test [9] and in test [10] was greater than 100 µM throughout.

With `CC(=O)c1ccc2c(c1)oc(=O)n2CCN1CCCCC1`, the total growth inhibition concentration (TGI) in test [1], in test [2], in test [3], in [4], in test [5] and in test [7] was greater than 100 µM in each case. Besides, the TGI in test [8], in test [9] and in test [10] was greater than 100 µM in each case.

Consider `COC12C=CC(CC1)C1C(=O)c3c(C)c(C)n(C)c3C(=O)C12` (stereo not given), for which the TGI in test [1], in test [2], in [3], in test [4], in test [5] and in [7] was greater than 100 µM in each case. Moreover, the TGI in [8], in [9] and in test [10] was greater than 100 µM each time.

For `C=C(C)[C@@H]1CC[C@]2(C(=O)O)CC[C@]3(C)[C@H](CC[C@@H]4[C@@]5(C)CC[C@H](C(=O)/C=C/c6ccc(O)cc6)C(C)(C)[C@@H]5CC[C@]43C)[C@@H]12`, the TGI was 53.9 µM in test [1]; 27.7 µM in [2]; 11.5 µM in [3]; 18.4 µM in test [4]; 39.5 µM in [6]; 94.6 µM in test [7]. Also, the concentration for total growth inhibition (TGI) in test [8] was 10.4 µM; in test [9], 17.3 µM; in test [10], 21.9 µM.

As for `O=C(Nc1nc(C23CC4CC(CC(C4)C2)C3)cs1)c1cc2cc(Br)cc(Br)c2oc1=O`, the TGI in [1], in [2], in test [3], in test [4], in test [5] and in [6] was greater than 100 µM each time. In addition, the concentration for total growth inhibition (TGI) in test [7], in test [8] and in test [9] was greater than 100 µM in each case.

For `C=C[C@H]1CN2CCc3c([nH]c4c([C@H]5CCCN5C)c(O)ccc34)[C@@H]2C[C@@H]1C[C@H]1c2[nH]c3ccccc3c2CCN1C`, the TGI in test [1] amounted to 2.91 µM; in test [2], 3.57 µM; in [3], 2.22 µM; in test [4], 2.82 µM; in test [5], 3.33 µM; in [6], 3.52 µM. Besides, the TGI in test [7] was 2.97 µM; in test [9], 2.3 µM; in test [10] it was 2.89 µM. Also, the GI50 – broadly, the concentration giving 50% growth inhibition – in [3] was 1.05 µM.

As for `COc1ccc(CN(CCc2c[nH]c3ccccc23)Cc2ccc(OC)cc2)cc1`, the TGI in test [2] was greater than 44.4 µM; in test [3], greater than 100 µM; in test [4] it was 13.9 µM; in test [5] it was 17.8 µM; in test [6], 8.77 µM; in [7], 18 µM. The figures for the total growth inhibition concentration (TGI) in test [8] and in [9] were 9.74 µM and greater than 100 µM, respectively.

For `CC1NC(/C(=C/c2ccccc2O)NC(=O)c2ccccc2)OC1=O` (stereo not given), the TGI in test [1], in test [2], in [3], in test [4], in [5] and in test [6] was greater than 50 µM throughout. In addition, the total growth inhibition concentration (TGI) in test [8], in [9] and in [10] was greater than 50 µM each time.

Regarding `CCOC(=O)c1nc2ccc(C(F)(F)F)cc2nc1Oc1ccc(F)cc1`, the total growth inhibition concentration (TGI) in test [1], in [2], in test [3], in test [4], in test [5] and in test [7] was greater than 100 µM in each case. In addition, the concentration for total growth inhibition (TGI) in test [8], in test [9] and in test [10] was greater than 100 µM in each case.

These data come from PubChem BioAssay (NCI).
